According to US20220404336A1, “COMPOSITIONS, METHODS AND USES FOR FREE FATTY ACID SCREENING OF CELLS AT SCALE” (priority 2019, published 2022):
“Also recorded” adds a separate entry of the source. Read-outs that look alike come from different tables or passages of the source.

What was measured:
NF-κB p65/RELA = experiment: RELA nuclear translocation, immunofluorescence; type: cell-based, mouse; conditions: MIN6 cells, 18 hours, BSA negative control
Experimental: Cells grown on 384 well CellCarrier Ultra microplates (#6057308, PerkinElmer) were fixed 10 min in PBS containing 4% PFA (Electron Microscopy Sciences), permeabilized 15 min in 0.5% Triton X-100 (Sigma-Aldrich), blocked for 1 h in blocking reagent (100 mM Tris HCL pH8; 150 mM NaCL; 5 g/L Blocking Reagent (#11096176001, Roche)) and treated for 1.5 h with primary antibody diluted in blocking reagent (NF-κB p65/RELA, Rabbit monoclonal antibody, 1:200, (#8242, Cell Signaling Technology). Cells were washed three times in PBS and incubated for 0.5 h with fluorescent-labeled secondary antibody in blocking solution (1:500, Alexa Fluor 568 Goat anti-Rabbit IgG, (#A11036, Thermo Fisher Scientific)). Cytoplasmic actin filaments were stained with Phalloidin conjugated with Alexa 647 (1:40, #A22287, Thermo Fisher Scientific) and nuclei were counterstained with Hoechst (1:2000, #H3570, Thermo Fisher Scientific). Cells were washed three times in PBS and imaged using the Opera Phenix High Content Screening System, #HH14000000, Perkin Elmer). A minimum of nine fields was acquired per well using 20× water immersion objectives in a confocal mode. Image analysis was performed using the Harmony software (PerkinElmer). Cell nuclei were first identified using Hoechst staining and nuclear region was defined for each cell. Phalloidin staining was then used to detect and define the cytoplasmic region of the cell. RELA fluorescent intensity was measured separately in the nuclear and cytoplasmic regions and a threshold for a nuclear translocation was defined using negative (BSA) and positive (TNFα) controls. For each well the fraction of cells identified for RELA nuclear translocation was calculated.

ATF4 and CHOP = experiment: Western blot, induction of the UPR; type: cell-based, mouse; conditions: MIN6 cells, BSA negative control
Experimental: MIN6 cells were lysed (#9803, Cell Signaling Technology) in the presence of protease inhibitors (#05892791001, Roche) and phosphatase inhibitors (#04906837001, Roche). Protein concentrations were quantified with the Pierce BCA Protein Assay Kit (#23225, Thermo Fisher Scientific). NuPAGE LDS sample buffer (#NP0008, Thermo Fisher Scientific) was added to normalized protein lysates together with NuPAGE reducing agent (#NP0004, Thermo Scientific). Lysates were heated to 95° C. for 5 min prior to SDS-PAGE gel electrophoresis (NuPAGE MES SDS running buffer, Thermo Fisher Scientific, #NP0002). Proteins were transferred to a nitrocellulose membrane (#1704158, BioRad) with the Trans-Blot® Turbo™ Blotting System (#1704155, BioRad) according to the manufacturer's protocol. Membranes were blocked in 5% Nonfat Dry Milk (#9999S, Cell Signaling Technology) in PBS with 0.1% Tween® 20 (PBS-T). Primary antibodies were incubated at 4° C. overnight, secondary antibodies were incubated at room temperature for 1 h. Super Signal West Dura (#34076, Thermo Fisher Scientific) or Super Signal West Pico (#34087, Thermo Fisher Scientific) were used to visualize immunoreactive bands imaged by G:BOX Chemi XT4:BOX-CHEMI-XT4, Syngene). Primary Antibodies used in this study: CPT1A: (Abcam #ab128568), ATF4: (CST #11815), CHOP: (CST #2895).

MIN6 cells [1] = experiment: ER calcium levels (Fluo4, thapsigargin, FLIPR Tetra); type: cell-based, mouse; conditions: FFA treatment 24 h, relative to negative control (BSA)
Experimental: MIN6 cells were plated in 384 well plates (Aurora, Black 384 SQ Well 188 micron Film, #1022-10110) and treated with the FFA library for 24 h prior to readout. Cells were carefully washed three times with HBSS (with calcium, Thermo Fisher Scientific, #14025076) using an automated simultaneous pipettor (analytikjena CyBio® Well vario) and incubated with the fluorescent calcium indicator Fluo4 (2 μM, Life Technologies, #F14202) in DMEM without additions for 1 h at room temperature. Then, cells were washed again in HBSS (with calcium) and incubated for another 30 min at room temperature in DMEM without additions. Just before the readout, cells were washed in final calcium free assay buffer solution (140 mM NaCl, 5 mM Kcl, 10 mM HEPES, 2 mM MgCl2, 10 mM EGTA, 10 mM Glucose) and left with 25 ul assay volume per well. Assay plates were immediately transferred to the FLIPR Tetra® High-Throughput Cellular Screening System. The plate was recorded with a frequency of 1 Hz for 10 min. Baseline was recorded for 30 s before the automated liquid transfer system of the FLIPR added the SERCA inhibitor Thapsigargin (final concentration 10 μM) in calcium free assay buffer. The resulting passive efflux of calcium from the ER induced a transient cytosolic fluorescence signal and the peak amplitudes were used to indirectly quantify ER calcium levels (See Extended Data FIG. 3d). The resulting trajectories were corrected for a pipetting artifact and baseline normalized. Log 2 Fold changes were calculated according to plate location specific negative (BSA) controls. The exclusion of one outlier/FFA/plate (n=5) based on a 3 sigma cutoff was allowed. P-values were calculated with Student's t-test (two-sided) and corrected for multiple testing (Benjamin & Hochberg).

[2] = system: human pancreatic islet cells; experiment: Toxicity against human pancreatic islet cells (C-peptide positive cell count); type: cell-based
Experimental: (§1) Human pancreatic islets from a deceased donor (Islet Research Resource ID: SAMN15400953) were purchased from the Integrated Islet Distribution program, dissociated, and cultured as described previously ([…] and Wagner. Curr. Protocols in Chem. Biol. 6: 157-168). In brief, 384 well plates (Perkin Elmer, CellCarrier Ultra, #6057300) were coated in ECM 2-3 days before the start of the experiment. HTB-9 cells (ATTC, 5637) were seeded at 10K/well into the 384 well plates and grown to confluence. All culture media was aspirated and 50 ul/well of 20 mM NH4OH in PBS (Sigma) was added. The plates were incubated at 37 C for 6 minutes, after which the NH4OH was pipetted up and down 4-5 times before being aspirated. The wells were then filled with 50 ul/well PBS until seeding with human islets. Human islets were pelleted and dissociated with StemPro Accutase (Life Technologies, A11105-01) at 37 C for 20-25 minutes followed by pipetting to mix 5-7 times. The dissociated islets were resuspended in CMRL 1066 medium (CellGro, cat. no. 15-110-CV) supplemented with 10% FBS, 1× L-glutamine, and 1× penicillin/streptomycin, filtered through a nylon mesh to remove large cell aggregates, and seeded at 10K/well density in the coated 384w plate. These islets were maintained in full CMRL media at 37 C, 95% humidity, and 5% CO2 with media changes every third day. For testing of free fatty acids for toxicity against human pancreatic islet cells (FIG. 8), C2, C3, and C4 free fatty acids were incubated with human pancreatic islet cells at concentrations of 250 μM, 500 μM, and 1 mM for 120 hours with one media change at 72 hours. The islets were subsequently fixed with 3% paraformaldehyde for 20 minutes, permeabilized with 0.2% TritonX-100 for another 20 minutes, and blocked for 3 hours at RT in 2% BSA in PBS (SeraCare, AP-45100-80). The islets were stained with C-peptide antibody (Developmental studies hybridoma bank at University of Iowa) at 1:100 in 2% BSA/PBS overnight rocking at 4 C, washed with PBS three times followed by once with 1% BSA/PBS, and then incubated with 568 Goat anti-rat (Life technologies, A11077) at 1:1000 and Hoechst (Thermo Fisher Scientific) at 1:1000 for one hour at RT. These islets were then imaged with the Operetta CLS High Content Screening System (#HH16000000, Perkin Elmer). The number of C-peptide positive cells in each well was quantified using Harmony software (PerkinElmer) and used as a proxy for cell viability.

[3] = as above; type: cell-based; conditions: female, dissociated human pancreatic islet cells; human islet cells, 120 hours; relative to the C3 and tested C4 free fatty acids; read-out: decrease of human pancreatic cell viability
Experimental: as §1

MIN6 cells [4] = type: cell-based
Experimental: For high throughput cell viability assay, cells were seeded in 384 well plates (Perkin Elmer, CellCarrier Ultra, #6057300) and treated for 24, 48 and 72 h with the FFA library. Just before readout, cell nuclei were stained with Hoechst (Thermo Fisher Scientific) for 1 h at 37° C. and imaged with the Opera Phenix High Content Screening System (#HH14000000, Perkin Elmer). Number of counted nuclei was determined with the image analysis software Harmony (PerkinElmer) and used as a proxy for cell viability. For low throughput validation experiments, cells were treated for 48 h with representative FFAs in CellCarrier-384 Ultra Microplates. Caspase 3/7 (Thermo Fisher Scientific, #C10423) activation and propidium iodide (Thermo Fisher Scientific, #P1304MP) staining were used to calculate the fraction of apoptotic cells and dead cells, respectively. Single cells were identified and counted after staining their nuclei with Hoechst. Fluorescence intensities were then measured and the threshold for Caspase 3/7 and propidium iodide positive staining was determined manually. Cell viability was calculated as the fraction of cells that were neither Caspase 3/7 nor propidium iodide positive.

[5] = MIN6 cells, representative FFAs, 48 h

| Compound | nuclear translocation of RELA (p65) (NF-κB p65/RELA) | induction of the UPR (ATF4 and CHOP protein abundance) (ATF4 and CHOP) | ER Ca^2+ levels (peak amplitude after thapsigargin 10 μM) (MIN6 cells [1]) | decrease of human pancreatic cell viability [2] | human pancreatic cell viability ([2]; human islet cells, 250 μM, 500 μM, 1 mM, 120 hours, relative to C3 FFAs 9Z-octadecenoic acid, 6Z-octadecenoic acid and C4 FFA 10Z-nonadecenoic acid) | cytotoxicity at 120 h [3] | apoptosis (caspase activity) and cell death (propidium iodide positive nuclei); cell viability (MIN6 cells [4]; [5]) | apoptosis (caspase activity) and cell death (propidium iodide positive nuclei); cell viability (MIN6 cells [4]) |
| --- | --- | --- | --- | --- | --- | --- | --- | --- |
| CCCCCCCCCCCCCCCC(=O)O [PA, Hexadecanoic acid] | translocated to the nucleus | upregulation of ATF4 and CHOP protein abundance; also recorded: inducing ATF4 and CHOP | significant reduction of ER Ca^2+ levels | – | – | – | – | – |
| CCCCCCCC/C=C\CCCCCCCCCCCCC(=O)O [14Z-tricosenoic acid, 14(Z)-Tricosenoic acid] | – | – | – | more than 50% | – | – | – | – |
| CCCCCCCC/C=C\CCCCCCCCCCCC(=O)O [EA, 13(Z)-Docosenoic acid] | translocated to the nucleus; also recorded: Complete translocation of RELA from the cytosol to the nucleus | upregulation of ATF4 and CHOP protein abundance; also recorded: inducing ATF4 and CHOP | significant reduction of ER Ca^2+ levels | – | decreased human pancreatic cell viability | > 50% | consistently induced apoptosis and cell death; also recorded: reduced cell viability | – |
| CCCCCCCC/C=C\CCCCCCCCCCCCCC(=O)O [15Z-tetracosenoic acid, 15(Z)-Tetracosenoic acid] | – | – | – | more than 50% | – | – | – | – |
| CCCCC/C=C\C/C=C\C/C=C\CCCCC(=O)O [GLA, gamma-linoleic acid] | – | None | increased | – | – | – | trended towards decreased viability | – |
| CCCCCCCCCCC/C=C\CCCCC(=O)O [PSA, petroselenic acid] | moderate RELA translocation to the nucleus | None | near-baseline | – | – | – | not associated with changes in cell viability | – |
| CCCCCCCC/C=C\CCCCCCCC(=O)O [OA, 9(Z)-Octadecenoic acid] | – | None | near-baseline | – | – | – | – | not associated with changes in cell viability |
| CCCCC/C=C\C/C=C\C/C=C\C/C=C\CCCC(=O)O [AA, 5(Z),8(Z),11(Z),14(Z)-Eicosatetraenoic Acid] | – | None | increased | – | – | – | – | trended towards decreased viability |
